By viability, T/C is commonly meant the result in the treated group divided by that in the control group, in per cent. For orientation: IC50 means the concentration that gives 50% inhibition.

“And” between values parts separate entries of the source, which are not always exact repeats. Identical values can stand only once.

The values below come from PubChem BioAssay AID2060611 (Molecular Pharmacology Branch, DTP, NCI, 2025).
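Also: spheroids exposed to agents for seven days before readout.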
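For viability, T/C in this document: 100% = DMSO vehicle control viability.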

The test system of the first experiment is 628569-122-R-J1-PDC complex spheroid viability. In words: Anticancer human tumor 628569-122-R-J1-PDC patient-derived head and neck squamous carcinoma cell line growth inhibition [CLK]. As to conditions: compound 0.000949 µM; stronger effect = lower value. An outline of the steps:
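Patient-derived tumor cells grown as complex spheroids with HUVEC endothelial cells and mesenchymal stem cells, treated with drug combinations. Concentrations descend in half-log steps from near clinical Cmax, or from 10 microM if Cmax unknown.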
With `C=CC(=O)Nc1cc(Nc2nccc(-c3cn(C)c4ccccc34)n2)c(OC)cc1N(C)CCN(C)C`, the viability, T/C is 81.8% and 77.8%.

Still in this experiment, the particulars now being: compound 0.003 µM; stronger effect = lower value.
Regarding `C=CC(=O)Nc1cc(Nc2nccc(-c3cn(C)c4ccccc34)n2)c(OC)cc1N(C)CCN(C)C`, the viability, T/C is 105% and 86.5%.

The experiment is the same for the next values; noted with them: compound 0.00949 µM; stronger effect = lower value.
As for `C=CC(=O)Nc1cc(Nc2nccc(-c3cn(C)c4ccccc34)n2)c(OC)cc1N(C)CCN(C)C`, the viability, T/C is 92.6% and 78.3%.

Still in this experiment, the particulars now being: compound 0.03 µM; stronger effect = lower value.
`C=CC(=O)Nc1cc(Nc2nccc(-c3cn(C)c4ccccc34)n2)c(OC)cc1N(C)CCN(C)C`: the viability, T/C was 73.7% and 73.6%.

Still in this experiment, the particulars now being: compound 0.0949 µM; stronger effect = lower value.
Consider `C=CC(=O)Nc1cc(Nc2nccc(-c3cn(C)c4ccccc34)n2)c(OC)cc1N(C)CCN(C)C`, for which the viability, T/C was 98.9% and 71.4%.

Still in this experiment, the particulars now being: compound 0.3 µM; stronger effect = lower value.
`C=CC(=O)Nc1cc(Nc2nccc(-c3cn(C)c4ccccc34)n2)c(OC)cc1N(C)CCN(C)C`: the viability, T/C was 71.7% and 55.5%.

Staying with this experiment, now noted: curve of compound.
In the case of `C=CC(=O)Nc1cc(Nc2nccc(-c3cn(C)c4ccccc34)n2)c(OC)cc1N(C)CCN(C)C`, the 50% inhibitory concentration (IC50) is greater than 0.3 µM.

Staying with this experiment, now noted: curve of first compound; second compound 0.0316 µM.
As for `O=c1[nH]cc(F)c(=O)[nH]1` + CNC(=O)c1ccc(Nc2nc(OC3CCCC3)c3c(-c4ccc5nc(C)oc5c4)c[nH]c3n2)c(OC)c1, the IC50 is greater than 10 µM.

As for `CC1COCCN1c1cc(C2(S(C)(=N)=O)CC2)nc(-c2ccnc3[nH]ccc23)n1` (stereo not drawn) + CN1CCN(c2cc(C(=O)Nc3cc4cc(-c5cnn(C)c5)ccc4cn3)ccn2)CC1, the concentration for half-maximal inhibition (IC50) turned out to be 2.62 µM.

As to `COC1C=CCC(C)C(C)S(=O)(=O)NC(=O)c2ccc3c(c2)N(CC2CCC21)CC1(CCCc2cc(Cl)ccc21)CO3` (stereo not drawn) + CNC(=O)c1ccc(Nc2nc(OC3CCCC3)c3c(-c4ccc5nc(C)oc5c4)c[nH]c3n2)c(OC)c1, the IC50 was 2 µM.

On to `COc1cccc2c1C(=O)c1c(O)c3c(c(O)c1C2=O)CC(O)(C(=O)CO)CC3OC1CC(N)C(O)C(C)O1` (stereo not drawn) + CNC(=O)c1ccc(Nc2nc(OC3CCCC3)c3c(-c4ccc5nc(C)oc5c4)c[nH]c3n2)c(OC)c1, for which the IC50 turned out to be 0.479 µM.

Still in this experiment, the particulars now being: curve of first compound; second compound 0.1 µM.
Regarding `O=c1[nH]cc(F)c(=O)[nH]1` + CNC(=O)c1ccc(Nc2nc(OC3CCCC3)c3c(-c4ccc5nc(C)oc5c4)c[nH]c3n2)c(OC)c1, the IC50 was greater than 10 µM.

Take `CC1COCCN1c1cc(C2(S(C)(=N)=O)CC2)nc(-c2ccnc3[nH]ccc23)n1` (stereo not drawn) + CN1CCN(c2cc(C(=O)Nc3cc4cc(-c5cnn(C)c5)ccc4cn3)ccn2)CC1: the concentration for half-maximal inhibition (IC50) was determined as 1.42 µM.

`COC1C=CCC(C)C(C)S(=O)(=O)NC(=O)c2ccc3c(c2)N(CC2CCC21)CC1(CCCc2cc(Cl)ccc21)CO3` (stereo not drawn) + CNC(=O)c1ccc(Nc2nc(OC3CCCC3)c3c(-c4ccc5nc(C)oc5c4)c[nH]c3n2)c(OC)c1: the half-maximal inhibitory concentration (IC50) came to 0.142 µM.

Consider `COc1cccc2c1C(=O)c1c(O)c3c(c(O)c1C2=O)CC(O)(C(=O)CO)CC3OC1CC(N)C(O)C(C)O1` (stereo not drawn) + CNC(=O)c1ccc(Nc2nc(OC3CCCC3)c3c(-c4ccc5nc(C)oc5c4)c[nH]c3n2)c(OC)c1, for which the IC50 is 0.446 µM.

The same experiment, now with this note: curve of first compound; second compound 0.316 µM.
For the compound `O=c1[nH]cc(F)c(=O)[nH]1` + CNC(=O)c1ccc(Nc2nc(OC3CCCC3)c3c(-c4ccc5nc(C)oc5c4)c[nH]c3n2)c(OC)c1, the IC50 was greater than 10 µM.

Take `CC1COCCN1c1cc(C2(S(C)(=N)=O)CC2)nc(-c2ccnc3[nH]ccc23)n1` (stereo not drawn) + CN1CCN(c2cc(C(=O)Nc3cc4cc(-c5cnn(C)c5)ccc4cn3)ccn2)CC1: the IC50 is less than 0.0316 µM.

As for `COC1C=CCC(C)C(C)S(=O)(=O)NC(=O)c2ccc3c(c2)N(CC2CCC21)CC1(CCCc2cc(Cl)ccc21)CO3` (stereo not drawn) + CNC(=O)c1ccc(Nc2nc(OC3CCCC3)c3c(-c4ccc5nc(C)oc5c4)c[nH]c3n2)c(OC)c1, the IC50 was less than 0.0316 µM.

Take `COc1cccc2c1C(=O)c1c(O)c3c(c(O)c1C2=O)CC(O)(C(=O)CO)CC3OC1CC(N)C(O)C(C)O1` (stereo not drawn) + CNC(=O)c1ccc(Nc2nc(OC3CCCC3)c3c(-c4ccc5nc(C)oc5c4)c[nH]c3n2)c(OC)c1: the IC50 was determined as 0.373 µM.

The same experiment, now with this note: curve of first compound; second compound 1 µM.
In the case of `O=c1[nH]cc(F)c(=O)[nH]1` + CNC(=O)c1ccc(Nc2nc(OC3CCCC3)c3c(-c4ccc5nc(C)oc5c4)c[nH]c3n2)c(OC)c1, the half-inhibitory concentration (IC50) was less than 0.0316 µM.

As to `CC1COCCN1c1cc(C2(S(C)(=N)=O)CC2)nc(-c2ccnc3[nH]ccc23)n1` (stereo not drawn) + CN1CCN(c2cc(C(=O)Nc3cc4cc(-c5cnn(C)c5)ccc4cn3)ccn2)CC1, the IC50 was less than 0.0316 µM.

Turning to `COC1C=CCC(C)C(C)S(=O)(=O)NC(=O)c2ccc3c(c2)N(CC2CCC21)CC1(CCCc2cc(Cl)ccc21)CO3` (stereo not drawn) + CNC(=O)c1ccc(Nc2nc(OC3CCCC3)c3c(-c4ccc5nc(C)oc5c4)c[nH]c3n2)c(OC)c1, the IC50 is less than 0.0316 µM.

With `COc1cccc2c1C(=O)c1c(O)c3c(c(O)c1C2=O)CC(O)(C(=O)CO)CC3OC1CC(N)C(O)C(C)O1` (stereo not drawn) + CNC(=O)c1ccc(Nc2nc(OC3CCCC3)c3c(-c4ccc5nc(C)oc5c4)c[nH]c3n2)c(OC)c1, the IC50 was 0.0316 µM.

The experiment is the same for the next values; noted with them: curve of first compound; second compound 3.16 µM.
As for `O=c1[nH]cc(F)c(=O)[nH]1` + CNC(=O)c1ccc(Nc2nc(OC3CCCC3)c3c(-c4ccc5nc(C)oc5c4)c[nH]c3n2)c(OC)c1, the IC50 is less than 0.0316 µM.

As for `CC1COCCN1c1cc(C2(S(C)(=N)=O)CC2)nc(-c2ccnc3[nH]ccc23)n1` (stereo not drawn) + CN1CCN(c2cc(C(=O)Nc3cc4cc(-c5cnn(C)c5)ccc4cn3)ccn2)CC1, the IC50 is less than 0.0316 µM.

For `COC1C=CCC(C)C(C)S(=O)(=O)NC(=O)c2ccc3c(c2)N(CC2CCC21)CC1(CCCc2cc(Cl)ccc21)CO3` (stereo not drawn) + CNC(=O)c1ccc(Nc2nc(OC3CCCC3)c3c(-c4ccc5nc(C)oc5c4)c[nH]c3n2)c(OC)c1, the IC50 is less than 0.0316 µM.

On to `COc1cccc2c1C(=O)c1c(O)c3c(c(O)c1C2=O)CC(O)(C(=O)CO)CC3OC1CC(N)C(O)C(C)O1` (stereo not drawn) + CNC(=O)c1ccc(Nc2nc(OC3CCCC3)c3c(-c4ccc5nc(C)oc5c4)c[nH]c3n2)c(OC)c1, for which the IC50 was less than 0.0316 µM.

Still in this experiment, the particulars now being: curve of first compound; second compound 10 µM.
`O=c1[nH]cc(F)c(=O)[nH]1` + CNC(=O)c1ccc(Nc2nc(OC3CCCC3)c3c(-c4ccc5nc(C)oc5c4)c[nH]c3n2)c(OC)c1: the half-maximal inhibitory concentration (IC50) was less than 0.0316 µM.

`CC1COCCN1c1cc(C2(S(C)(=N)=O)CC2)nc(-c2ccnc3[nH]ccc23)n1` (stereo not drawn) + CN1CCN(c2cc(C(=O)Nc3cc4cc(-c5cnn(C)c5)ccc4cn3)ccn2)CC1: the IC50 was less than 0.0316 µM.

Consider `COC1C=CCC(C)C(C)S(=O)(=O)NC(=O)c2ccc3c(c2)N(CC2CCC21)CC1(CCCc2cc(Cl)ccc21)CO3` (stereo not drawn) + CNC(=O)c1ccc(Nc2nc(OC3CCCC3)c3c(-c4ccc5nc(C)oc5c4)c[nH]c3n2)c(OC)c1, for which the IC50 is less than 0.0316 µM.

`COc1cccc2c1C(=O)c1c(O)c3c(c(O)c1C2=O)CC(O)(C(=O)CO)CC3OC1CC(N)C(O)C(C)O1` (stereo not drawn) + CNC(=O)c1ccc(Nc2nc(OC3CCCC3)c3c(-c4ccc5nc(C)oc5c4)c[nH]c3n2)c(OC)c1: the IC50 is less than 0.0316 µM.

The experiment is the same for the next values; noted with them: second compound 0.0316 µM; first compound 0.0316 µM; stronger effect = lower value.
As to `O=c1[nH]cc(F)c(=O)[nH]1` + CNC(=O)c1ccc(Nc2nc(OC3CCCC3)c3c(-c4ccc5nc(C)oc5c4)c[nH]c3n2)c(OC)c1, the viability, T/C was 108%.

In the case of `CC1COCCN1c1cc(C2(S(C)(=N)=O)CC2)nc(-c2ccnc3[nH]ccc23)n1` (stereo not drawn) + CN1CCN(c2cc(C(=O)Nc3cc4cc(-c5cnn(C)c5)ccc4cn3)ccn2)CC1, the viability, T/C was 101%.

Take `COC1C=CCC(C)C(C)S(=O)(=O)NC(=O)c2ccc3c(c2)N(CC2CCC21)CC1(CCCc2cc(Cl)ccc21)CO3` (stereo not drawn) + CNC(=O)c1ccc(Nc2nc(OC3CCCC3)c3c(-c4ccc5nc(C)oc5c4)c[nH]c3n2)c(OC)c1: the viability, T/C is 103%.

Regarding `COc1cccc2c1C(=O)c1c(O)c3c(c(O)c1C2=O)CC(O)(C(=O)CO)CC3OC1CC(N)C(O)C(C)O1` (stereo not drawn) + CNC(=O)c1ccc(Nc2nc(OC3CCCC3)c3c(-c4ccc5nc(C)oc5c4)c[nH]c3n2)c(OC)c1, the viability, T/C was 65.1%.

Staying with this experiment, now noted: second compound 0.0316 µM; first compound 0.1 µM; stronger effect = lower value.
Turning to `O=c1[nH]cc(F)c(=O)[nH]1` + CNC(=O)c1ccc(Nc2nc(OC3CCCC3)c3c(-c4ccc5nc(C)oc5c4)c[nH]c3n2)c(OC)c1, the viability, T/C is 99.2%.

Take `CC1COCCN1c1cc(C2(S(C)(=N)=O)CC2)nc(-c2ccnc3[nH]ccc23)n1` (stereo not drawn) + CN1CCN(c2cc(C(=O)Nc3cc4cc(-c5cnn(C)c5)ccc4cn3)ccn2)CC1: the viability, T/C was 95.9%.

As for `COC1C=CCC(C)C(C)S(=O)(=O)NC(=O)c2ccc3c(c2)N(CC2CCC21)CC1(CCCc2cc(Cl)ccc21)CO3` (stereo not drawn) + CNC(=O)c1ccc(Nc2nc(OC3CCCC3)c3c(-c4ccc5nc(C)oc5c4)c[nH]c3n2)c(OC)c1, the viability, T/C was 87.7%.

Turning to `COc1cccc2c1C(=O)c1c(O)c3c(c(O)c1C2=O)CC(O)(C(=O)CO)CC3OC1CC(N)C(O)C(C)O1` (stereo not drawn) + CNC(=O)c1ccc(Nc2nc(OC3CCCC3)c3c(-c4ccc5nc(C)oc5c4)c[nH]c3n2)c(OC)c1, the viability, T/C is 56.3%.

The same experiment, now with this note: second compound 0.0316 µM; first compound 0.316 µM; stronger effect = lower value.
Turning to `O=c1[nH]cc(F)c(=O)[nH]1` + CNC(=O)c1ccc(Nc2nc(OC3CCCC3)c3c(-c4ccc5nc(C)oc5c4)c[nH]c3n2)c(OC)c1, the viability, T/C is 101%.

Take `CC1COCCN1c1cc(C2(S(C)(=N)=O)CC2)nc(-c2ccnc3[nH]ccc23)n1` (stereo not drawn) + CN1CCN(c2cc(C(=O)Nc3cc4cc(-c5cnn(C)c5)ccc4cn3)ccn2)CC1: the viability, T/C was 79.1%.

As for `COC1C=CCC(C)C(C)S(=O)(=O)NC(=O)c2ccc3c(c2)N(CC2CCC21)CC1(CCCc2cc(Cl)ccc21)CO3` (stereo not drawn) + CNC(=O)c1ccc(Nc2nc(OC3CCCC3)c3c(-c4ccc5nc(C)oc5c4)c[nH]c3n2)c(OC)c1, the viability, T/C is 64.8%.

In the case of `COc1cccc2c1C(=O)c1c(O)c3c(c(O)c1C2=O)CC(O)(C(=O)CO)CC3OC1CC(N)C(O)C(C)O1` (stereo not drawn) + CNC(=O)c1ccc(Nc2nc(OC3CCCC3)c3c(-c4ccc5nc(C)oc5c4)c[nH]c3n2)c(OC)c1, the viability, T/C was 88.3%.
